Assays:
[1] = DRUGMATRIX: Serotonin (5-Hydroxytryptamine) 5-HT3 radioligand binding (ligand: [3H] GR-65630); format: cell membranes, Membrane; conditions: hek293; Not Active = under 50% inhibition at 10 µM
[2] = target: T1, C-X-C chemokine receptor type 2 (Homo sapiens, UniProt P25025); format: cell membranes, Membrane; conditions: cho-k1; also: in other assays of this panel Not Active means under 50% inhibition at 10 µM
T1 sequence (P25025 whole entry): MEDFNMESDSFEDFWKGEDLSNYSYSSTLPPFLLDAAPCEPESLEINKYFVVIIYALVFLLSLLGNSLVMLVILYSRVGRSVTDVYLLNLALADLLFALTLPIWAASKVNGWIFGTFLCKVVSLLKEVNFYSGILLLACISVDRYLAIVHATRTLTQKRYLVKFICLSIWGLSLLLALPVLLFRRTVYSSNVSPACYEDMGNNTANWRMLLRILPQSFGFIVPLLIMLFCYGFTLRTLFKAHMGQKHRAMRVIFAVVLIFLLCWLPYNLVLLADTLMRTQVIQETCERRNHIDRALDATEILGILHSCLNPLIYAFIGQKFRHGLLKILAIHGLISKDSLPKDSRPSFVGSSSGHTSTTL

[3] = target: T2, Amine oxidase [flavin-containing] A (Homo sapiens, UniProt P21397); assay: DRUGMATRIX: Monoamine Oxidase MAO-A enzyme inhibition (substrate: Kynuramine); set-up: species or system BTI-TN-5B1-4; conditions: bti-tn-5b1-4; Not Active = under 50% inhibition at 10 µM
T2 sequence (P21397 whole entry): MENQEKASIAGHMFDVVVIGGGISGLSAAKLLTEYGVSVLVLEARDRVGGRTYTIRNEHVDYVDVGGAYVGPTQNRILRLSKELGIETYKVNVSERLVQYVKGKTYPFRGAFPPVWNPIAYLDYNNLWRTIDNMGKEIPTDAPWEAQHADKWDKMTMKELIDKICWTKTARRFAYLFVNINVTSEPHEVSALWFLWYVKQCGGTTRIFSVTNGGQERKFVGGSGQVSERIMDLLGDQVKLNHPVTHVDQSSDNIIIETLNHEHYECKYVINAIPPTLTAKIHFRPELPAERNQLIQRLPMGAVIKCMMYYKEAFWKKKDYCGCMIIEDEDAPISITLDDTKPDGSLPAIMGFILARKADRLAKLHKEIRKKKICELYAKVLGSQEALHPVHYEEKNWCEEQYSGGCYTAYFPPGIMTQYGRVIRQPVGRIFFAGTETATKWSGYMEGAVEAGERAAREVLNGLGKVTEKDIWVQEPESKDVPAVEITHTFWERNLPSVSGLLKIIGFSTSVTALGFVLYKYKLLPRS

Nitric oxide synthase 1 = Nitric oxide synthase 1 (Rattus norvegicus, UniProt P29476); format: tissue-based, Cerebellum; also: in other assays of this panel Not Active means under 50% inhibition at 10 µM
[4] = target: Kappa-type opioid receptor (Homo sapiens, UniProt P41145); assay: DRUGMATRIX: Opiate kappa (OP2, KOP) radioligand binding (ligand: [3H] Diprenorphine); format: cell membranes, HEK293, Membrane; conditions: hek293; Not Active = under 50% inhibition at 10 µM
Adenosine receptor A1 = target: T3, Adenosine receptor A1 (Homo sapiens, UniProt P30542); format: cell membranes, CHO, Membrane; conditions: cho;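 also: radioligand binding assay at the adenosine A1 receptor, with DPCPX serving as the labelled ligand; in other assays of this panel Not Active means under 50% inhibition at 10 µM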
T3 sequence (P30542 whole entry): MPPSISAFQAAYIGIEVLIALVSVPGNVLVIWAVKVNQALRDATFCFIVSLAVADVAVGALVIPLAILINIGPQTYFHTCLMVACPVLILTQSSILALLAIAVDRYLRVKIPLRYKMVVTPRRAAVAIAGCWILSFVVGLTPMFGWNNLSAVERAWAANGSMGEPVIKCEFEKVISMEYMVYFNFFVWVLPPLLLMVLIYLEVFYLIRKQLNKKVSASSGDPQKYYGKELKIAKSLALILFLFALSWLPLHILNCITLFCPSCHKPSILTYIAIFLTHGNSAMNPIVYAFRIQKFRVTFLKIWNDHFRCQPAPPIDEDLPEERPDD

Cytochrome P450 2A6 = target: T4, Cytochrome P450 2A6 (Homo sapiens, UniProt P11509); conditions: bti-tn-5b1-4; also: in other assays of this panel Not Active means under 50% inhibition at 10 µM
T4 sequence (P11509 whole entry): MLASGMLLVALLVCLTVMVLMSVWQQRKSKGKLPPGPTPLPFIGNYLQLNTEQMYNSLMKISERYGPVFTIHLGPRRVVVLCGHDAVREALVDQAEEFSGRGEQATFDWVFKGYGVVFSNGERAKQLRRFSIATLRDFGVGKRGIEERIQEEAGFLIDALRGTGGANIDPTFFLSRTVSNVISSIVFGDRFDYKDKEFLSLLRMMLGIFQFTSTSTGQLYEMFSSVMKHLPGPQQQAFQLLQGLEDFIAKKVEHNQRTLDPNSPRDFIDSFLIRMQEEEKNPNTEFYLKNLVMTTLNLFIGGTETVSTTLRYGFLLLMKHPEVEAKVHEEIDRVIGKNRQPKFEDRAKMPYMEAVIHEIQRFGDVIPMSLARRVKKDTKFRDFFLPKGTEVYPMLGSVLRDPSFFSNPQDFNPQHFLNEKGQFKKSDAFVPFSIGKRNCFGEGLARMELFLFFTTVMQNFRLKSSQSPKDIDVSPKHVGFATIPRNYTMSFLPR

Cytochrome P450 2E1 = Cytochrome P450 2E1 (Homo sapiens, UniProt P05181); conditions: bti-tn-5b1-4; also: in other assays of this panel Not Active means under 50% inhibition at 10 µM
Chain of Cytochrome P450 2E1 (P05181 whole entry): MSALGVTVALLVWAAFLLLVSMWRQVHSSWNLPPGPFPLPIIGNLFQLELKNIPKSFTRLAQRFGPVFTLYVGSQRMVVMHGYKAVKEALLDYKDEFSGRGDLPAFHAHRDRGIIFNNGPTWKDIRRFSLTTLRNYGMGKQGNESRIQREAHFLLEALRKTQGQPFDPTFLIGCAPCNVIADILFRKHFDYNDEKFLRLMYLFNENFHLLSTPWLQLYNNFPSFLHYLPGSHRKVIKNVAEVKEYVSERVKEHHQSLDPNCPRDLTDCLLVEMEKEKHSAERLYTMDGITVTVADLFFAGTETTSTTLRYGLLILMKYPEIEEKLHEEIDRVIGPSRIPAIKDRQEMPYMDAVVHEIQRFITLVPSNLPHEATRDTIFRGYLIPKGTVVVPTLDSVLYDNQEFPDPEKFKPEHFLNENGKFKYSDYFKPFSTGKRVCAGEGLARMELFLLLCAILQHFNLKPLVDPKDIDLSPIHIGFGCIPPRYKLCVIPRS

Chain of Nitric oxide synthase 1 (P29476 whole entry): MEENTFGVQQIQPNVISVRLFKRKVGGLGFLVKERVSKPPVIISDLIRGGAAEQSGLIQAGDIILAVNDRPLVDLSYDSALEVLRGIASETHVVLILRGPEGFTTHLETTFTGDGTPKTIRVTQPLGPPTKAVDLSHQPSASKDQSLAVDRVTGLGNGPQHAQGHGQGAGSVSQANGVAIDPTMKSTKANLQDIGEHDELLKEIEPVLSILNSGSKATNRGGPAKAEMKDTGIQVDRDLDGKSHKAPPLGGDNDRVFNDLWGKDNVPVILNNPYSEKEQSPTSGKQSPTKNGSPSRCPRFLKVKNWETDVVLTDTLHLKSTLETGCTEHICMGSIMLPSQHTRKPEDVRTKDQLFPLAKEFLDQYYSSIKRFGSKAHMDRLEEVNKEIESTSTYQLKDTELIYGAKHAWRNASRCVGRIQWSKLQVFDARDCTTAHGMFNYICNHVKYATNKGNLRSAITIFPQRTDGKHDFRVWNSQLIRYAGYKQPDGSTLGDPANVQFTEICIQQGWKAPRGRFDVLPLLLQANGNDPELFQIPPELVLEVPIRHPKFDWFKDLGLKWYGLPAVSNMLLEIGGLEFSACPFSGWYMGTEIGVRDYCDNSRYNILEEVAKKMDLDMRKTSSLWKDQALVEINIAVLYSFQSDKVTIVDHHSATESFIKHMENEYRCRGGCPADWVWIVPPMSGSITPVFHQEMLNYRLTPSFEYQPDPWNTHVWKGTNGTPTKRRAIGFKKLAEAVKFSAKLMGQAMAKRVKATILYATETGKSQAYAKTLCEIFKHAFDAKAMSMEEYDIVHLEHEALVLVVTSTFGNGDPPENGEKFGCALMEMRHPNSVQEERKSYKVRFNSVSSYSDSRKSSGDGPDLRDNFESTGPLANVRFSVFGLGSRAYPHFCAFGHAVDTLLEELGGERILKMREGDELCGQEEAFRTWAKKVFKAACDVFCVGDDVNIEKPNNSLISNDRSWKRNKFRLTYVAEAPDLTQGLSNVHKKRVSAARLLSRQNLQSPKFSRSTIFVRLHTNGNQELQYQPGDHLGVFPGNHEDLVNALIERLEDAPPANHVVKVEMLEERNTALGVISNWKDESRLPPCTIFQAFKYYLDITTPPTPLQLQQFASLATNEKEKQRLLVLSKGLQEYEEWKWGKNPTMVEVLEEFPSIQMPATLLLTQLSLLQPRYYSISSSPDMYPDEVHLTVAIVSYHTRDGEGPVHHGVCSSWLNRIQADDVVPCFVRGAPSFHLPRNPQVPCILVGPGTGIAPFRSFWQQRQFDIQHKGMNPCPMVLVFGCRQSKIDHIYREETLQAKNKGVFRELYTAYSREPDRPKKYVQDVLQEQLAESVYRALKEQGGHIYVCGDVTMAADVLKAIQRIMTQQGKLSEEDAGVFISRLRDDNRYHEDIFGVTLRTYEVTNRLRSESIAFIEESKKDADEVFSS
Chain of Kappa-type opioid receptor (P41145 whole entry): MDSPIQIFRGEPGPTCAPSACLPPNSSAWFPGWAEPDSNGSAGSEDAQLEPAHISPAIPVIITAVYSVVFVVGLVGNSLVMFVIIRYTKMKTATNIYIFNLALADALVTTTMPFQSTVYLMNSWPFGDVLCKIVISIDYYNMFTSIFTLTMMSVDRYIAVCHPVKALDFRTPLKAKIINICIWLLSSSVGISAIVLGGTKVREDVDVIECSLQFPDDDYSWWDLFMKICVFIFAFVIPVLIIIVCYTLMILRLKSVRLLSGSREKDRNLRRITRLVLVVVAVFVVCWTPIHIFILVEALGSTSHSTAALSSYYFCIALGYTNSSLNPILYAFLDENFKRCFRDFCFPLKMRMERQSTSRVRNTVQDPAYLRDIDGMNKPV

O=c1ncn2nc(Sc3ccc(F)cc3F)ccc2c1-c1c(Cl)cccc1Cl [NEFLAMAPIMOD]
Not Active: IC50 [1] | Ki [1] | IC50 [2] | IC50 [3] | IC50 (Nitric oxide synthase 1) | IC50 [4] | IC50 (Adenosine receptor A1) | IC50 (Cytochrome P450 2A6) | Ki (Cytochrome P450 2A6) | IC50 (Cytochrome P450 2E1) | Ki (Cytochrome P450 2E1)

CO[C@H]1/C=C/O[C@@]2(C)Oc3c(C)c(O)c4c(O)c(c(/C=N/N5CCN(C)CC5)c(O)c4c3C2=O)NC(=O)/C(C)=C\C=C\[C@H](C)[C@H](O)[C@@H](C)[C@@H](O)[C@@H](C)[C@H](OC(C)=O)[C@@H]1C [RIFAMPIN]
Not Active: IC50 [1] | Ki [1] | IC50 [2] | IC50 [3] | IC50 (Nitric oxide synthase 1) | IC50 [4] | IC50 (Adenosine receptor A1) | IC50 (Cytochrome P450 2A6) | Ki (Cytochrome P450 2A6) | IC50 (Cytochrome P450 2E1) | Ki (Cytochrome P450 2E1)

C=CCC1(C(C)CCC)C(=O)NC(=O)NC1=O (stereo unspecified) [SECOBARBITAL]
Not Active: IC50 [1] | Ki [1] | IC50 [2] | IC50 [3] | IC50 (Nitric oxide synthase 1) | IC50 [4] | IC50 (Adenosine receptor A1) | IC50 (Cytochrome P450 2A6) | Ki (Cytochrome P450 2A6) | IC50 (Cytochrome P450 2E1) | Ki (Cytochrome P450 2E1)

C[C@@H]1CN(c2c(F)c(N)c3c(=O)c(C(=O)O)cn(C4CC4)c3c2F)C[C@H](C)N1 [SPARFLOXACIN]
Not Active: IC50 [1] | Ki [1] | IC50 [2] | IC50 [3] | IC50 (Nitric oxide synthase 1) | IC50 [4] | IC50 (Adenosine receptor A1) | IC50 (Cytochrome P450 2A6) | Ki (Cytochrome P450 2A6) | IC50 (Cytochrome P450 2E1) | Ki (Cytochrome P450 2E1)

Cc1noc(NS(=O)(=O)c2ccc(N)cc2)c1C [SULFISOXAZOLE]
Not Active: IC50 [1] | Ki [1] | IC50 [2] | IC50 [3] | IC50 (Nitric oxide synthase 1) | IC50 [4] | IC50 (Adenosine receptor A1) | IC50 (Cytochrome P450 2A6) | Ki (Cytochrome P450 2A6) | IC50 (Cytochrome P450 2E1) | Ki (Cytochrome P450 2E1)

CSc1ccc(/C=C2/C(C)=C(CC(=O)O)c3cc(F)ccc32)cc1 [SULINDAC SULFIDE]
Not Active: IC50 [1] | Ki [1] | IC50 [2] | IC50 [3] | IC50 (Nitric oxide synthase 1) | IC50 [4] | IC50 (Adenosine receptor A1) | IC50 (Cytochrome P450 2A6) | Ki (Cytochrome P450 2A6) | IC50 (Cytochrome P450 2E1) | Ki (Cytochrome P450 2E1)

Nc1c2c(nc3ccccc13)CCCC2 [TACRINE]
Not Active: IC50 [1] | Ki [1] | IC50 [2] | IC50 [3] | IC50 (Nitric oxide synthase 1) | IC50 [4] | IC50 (Adenosine receptor A1) | IC50 (Cytochrome P450 2A6) | Ki (Cytochrome P450 2A6) | IC50 (Cytochrome P450 2E1) | Ki (Cytochrome P450 2E1)

CC(C)N1CCN(c2ccc(OCC3COC(Cn4cncn4)(c4ccc(Cl)cc4Cl)O3)cc2)CC1 (stereo unspecified) [TERCONAZOLE]
Not Active: IC50 [1] | Ki [1] | IC50 [2] | IC50 [3] | IC50 (Nitric oxide synthase 1) | IC50 [4] | IC50 (Adenosine receptor A1) | IC50 (Cytochrome P450 2A6) | Ki (Cytochrome P450 2A6) | IC50 (Cytochrome P450 2E1) | Ki (Cytochrome P450 2E1)

Nc1nc2nc[nH]c2c(=S)[nH]1 [THIOGUANINE]
Not Active: IC50 [1] | Ki [1] | IC50 [2] | IC50 [3] | IC50 (Nitric oxide synthase 1) | IC50 [4] | IC50 (Adenosine receptor A1) | IC50 (Cytochrome P450 2A6) | Ki (Cytochrome P450 2A6) | IC50 (Cytochrome P450 2E1) | Ki (Cytochrome P450 2E1)

Cc1cccc(N(C)C(=S)Oc2ccc3ccccc3c2)c1 [TOLNAFTATE]
Not Active: IC50 [1] | Ki [1] | IC50 [2] | IC50 [3] | IC50 (Nitric oxide synthase 1) | IC50 [4] | IC50 (Adenosine receptor A1) | IC50 (Cytochrome P450 2A6) | Ki (Cytochrome P450 2A6) | IC50 (Cytochrome P450 2E1) | Ki (Cytochrome P450 2E1)

NC[C@H]1CC[C@H](C(=O)O)CC1 [TRANEXAMIC ACID]
Not Active: IC50 [1] | Ki [1] | IC50 [2] | IC50 [3] | IC50 (Nitric oxide synthase 1) | IC50 [4] | IC50 (Adenosine receptor A1) | IC50 (Cytochrome P450 2A6) | Ki (Cytochrome P450 2A6) | IC50 (Cytochrome P450 2E1) | Ki (Cytochrome P450 2E1)

Reference: ChEMBL document CHEMBL1909046, “DrugMatrix in vitro pharmacology data”
